# What was measured:
# [1] = Growth inhibition of human Melanoma cell; assay type: functional
# [2] = tested on: Leukemia cell; assay: Growth inhibition of human Leukemia cell; assay type: functional
# [3] = Growth inhibition of human Non-small cell lung cancer cell line; assay type: functional
# [4] = Growth inhibition of human Colon cancer cell line; assay type: functional
# [5] = tested on: CNS carcinoma cell; assay: Growth inhibition of human CNS carcinoma cell; assay type: functional
# [6] = tested on: A549; assay: Anticancer activity against human A549 cells assessed as reduction in cell viability incubated for 48 hrs by MTT assay; assay type: functional, cell-based; details: A549, 48 h
# [7] = tested on: IMR-32; assay: Anticancer activity against human IMR-32 cells assessed as reduction in cell viability incubated for 48 hrs by MTT assay; assay type: functional, cell-based; details: IMR-32, 48 h
# [8] = tested on: HeLa; assay: Anticancer activity against human HeLa cells assessed as reduction in cell viability incubated for 48 hrs by MTT assay; assay type: functional, cell-based
# [9] = Anticancer activity against HEK293 cells assessed as reduction in cell viability incubated for 48 hrs by MTT assay; assay type: toxicity, cell-based; details: human
# [10] = Antiproliferative activity against human HepG2 cells assessed as reduction in cell growth by MTT assay; assay type: toxicity, cell-based
# [11] = tested on: L02; assay: Antiproliferative activity against human LO2 cells assessed as reduction in cell growth by MTT assay; assay type: functional, cell-based
# [12] = Antiproliferative activity against human MCF-10A cells assessed as reduction in cell growth by MTT assay; assay type: toxicity, cell-based
# [13] = tested on: MDA-MB-231; assay: Antiproliferative activity against human MDA-MB-231 cells assessed as reduction in cell growth by MTT assay; assay type: functional, cell-based
# [14] = tested on: MCF7; assay: Anticancer activity against human MCF7 cells at 125 uM relative to control; assay type: functional
# [15] = tested on: MCF7; assay: Anticancer activity against human MCF7 cells at 31.25 uM relative to control; assay type: functional
# [16] = tested on: MCF7; assay: Anticancer activity against human MCF7 cells at 15.6 uM relative to control; assay type: functional
# [17] = tested on: MCF7; assay: Anticancer activity against human MCF7 cells at 7.8 uM relative to control; assay type: functional
# [18] = tested on: MCF7; assay: Anticancer activity against human MCF7 cells at 3.9 uM relative to control; assay type: functional
# [19] = tested on: MCF7; assay: Anticancer activity against human MCF7 cells at 1.9 uM relative to control; assay type: functional
# [20] = tested on: MCF7; assay: Anticancer activity against human MCF7 cells at 500 uM relative to control; assay type: functional
# [21] = tested on: MCF7; assay: Anticancer activity against human MCF7 cells at 62.5 uM relative to control; assay type: functional
# [22] = tested on: MCF7; assay: Anticancer activity against human MCF7 cells at 1.5 uM relative to control; assay type: functional
# [23] = tested on: A549; assay: Antiproliferative activity against human A549 cells assessed as reduction in cell viability incubated for 24 hrs by MTT assay; assay type: functional, cell-based; details: A549, 24 h
# [24] = tested on: AGS; assay: Antiproliferative activity against human AGS cells assessed as reduction in cell viability incubated for 24 hrs by MTT assay; assay type: functional, cell-based
# [25] = Antiproliferative activity against human MRC5 cells assessed as reduction in cell viability incubated for 24 hrs by MTT assay; assay type: toxicity, cell-based
# [26] = tested on: NCI-H1299; assay: Anticancer activity against human NCI-H1299 cells by MTT assay; assay type: functional, cell-based
# [27] = tested on: A549; assay: Anticancer activity against human A549 cells by MTT assay; assay type: functional, cell-based
# [28] = Anticancer activity against human UKF-NB-3 cells by MTT assay; assay type: functional, cell-based
# [29] = tested on: HeLa; assay: Antiproliferative activity against human HeLa cells assessed as reduction in cell growth incubated for 48 hrs by MTT assay; assay type: functional, cell-based
# [30] = tested on: K562; assay: Antiproliferative activity against human K562 cells assessed as reduction in cell growth incubated for 48 hrs by MTT assay; assay type: functional, cell-based; details: K562, 48 h
# [31] = tested on: A2780; assay: Cytotoxicity against human A2780 cells assessed as reduction in cell viability by MTT assay; assay type: functional, cell-based
# [32] = tested on: COLO 205; assay: Cytotoxicity against human COLO 205 cells assessed as reduction in cell viability by MTT assay; assay type: functional, cell-based
# [33] = tested on: MCF7; assay: Cytotoxicity against human MCF7 cells assessed as reduction in cell viability by MTT assay; assay type: functional, cell-based
structure (smiles),measurement,setting,value
Oc1ccc(/C=C/c2cc(O)cc(O)c2)cc1 [RESVERATROL],GI50,[1],64.6 µM
same,GI50,[2],15.9 µM
same,GI50,[3],61.7 µM
same,GI50,[4],56 µM
same,GI50,[5],70.8 µM
COc1ccc(Nn2c(SCC(=O)Nc3nc(-c4ccc(Cl)cc4)cs3)nc(C)c2C)cc1,GI50,[2],4.15 µM
O=[N+]([O-])c1ccccc1-c1nc(-c2ccc(Br)cc2)c(-c2ccc(Br)cc2)[nH]1,IC50,[6],12.5 µM
same,IC50,[7],10.3 µM
same,IC50,[8],13.6 µM
same,IC50 at 48 h,[9],94.3 µM
Cc1nc(SCC(=O)Nc2nc(-c3ccc(Cl)cc3)cs2)n(Nc2ccccc2)c1C,GI50,[2],3.08 µM
Oc1ccc(-n2cnc(-c3cc(O)cc(O)c3)c2)cc1,GI50,[1],12.9 µM
same,GI50,[2],4.1 µM
same,GI50,[3],28.8 µM
same,GI50,[4],11.5 µM
same,GI50,[5],11.5 µM
Brc1ccc(-c2nc(-c3ccccc3)c(-c3ccccc3)[nH]2)cn1,IC50,[10],26.7 µM
same,IC50,[11],22 µM
same,IC50,[12],36.8 µM
same,IC50,[13],17.8 µM
Clc1ncccc1-c1nc(-c2ccccc2)c(-c2ccccc2)[nH]1,IC50,[10],19.7 µM
same,IC50,[11],> 50 µM
same,IC50,[12],> 50 µM
same,IC50,[13],24.1 µM
Cc1ccc(-c2nc(-c3ccccc3)c(-c3ccccc3)n2Cc2ccc(F)cc2)cc1,inhibition at 125 µM,[14],29%
same,inhibition at 31.25 µM,[15],47%
same,inhibition at 15.6 µM,[16],53%
same,inhibition at 7.8 µM,[17],66%
same,inhibition at 3.9 µM,[18],72%
same,inhibition at 1.9 µM,[19],87%
same,inhibition at 500 µM,[20],15%
same,inhibition at 62.5 µM,[21],38%
same,inhibition at 1.5 µM,[22],90%
Brc1ccc(-c2nc(-c3c[nH]c4ccccc34)[nH]c2-c2ccc(Br)cc2)cc1,IC50,[6],9.52 µM
same,IC50,[7],10.5 µM
same,IC50,[8],11.2 µM
same,IC50 at 48 h,[9],98.5 µM
COc1ccc(C(=O)/C=C/c2nc3ccccc3n2C)cc1,IC50,[23],68.1 µM
same,IC50,[24],15.1 µM
same,IC50 at 24 h,[25],45.9 µM
COc1ccc(-c2nc(-c3ccccc3)c(-c3ccccc3)n2Cc2ccc(F)cc2)cc1,inhibition at 125 µM,[14],39%
same,inhibition at 31.25 µM,[15],54%
same,inhibition at 15.6 µM,[16],65%
same,inhibition at 7.8 µM,[17],73%
same,inhibition at 3.9 µM,[18],79%
same,inhibition at 1.9 µM,[19],88%
same,inhibition at 500 µM,[20],13%
same,inhibition at 62.5 µM,[21],41%
same,inhibition at 1.5 µM,[22],82%
Cc1ccc(Nn2c(SCC(=O)Nc3nc(-c4ccccc4)cs3)nc(C)c2C)cc1,GI50,[2],3.91 µM
Cn1ccnc1/C=C/C(=O)c1ccc(F)cc1,IC50,[23],> 100 µM
same,IC50,[24],29.3 µM
same,IC50 at 24 h,[25],> 100 µM
COc1ccc(C2=N[C@H](c3ccc(Cl)cc3)[C@H](c3ccc(Cl)cc3)N2C(=O)N2CCNC(=O)C2)c(OC(C)C)c1,IC50,[26],> 100 µg/mL
same,IC50,[27],11.1 µg/mL
same,IC50,[28],5.2 µg/mL
c1ccc(-c2nc(-c3c[nH]c4ccccc34)[nH]c2-c2ccccc2)cc1,IC50,[10],29.3 µM
same,IC50,[11],34.7 µM
same,IC50,[12],31.8 µM
same,IC50,[13],31.4 µM
COc1cc([C@@H]2c3cc4c(cc3[C@@H](O[C@@H]3O[C@@H]5CO[C@@H](C)O[C@H]5[C@H](O)[C@H]3O)[C@H]3COC(=O)[C@H]23)OCO4)cc(OC)c1O [ETOPOSIDE],IC50,[29],2.99 µM
same,IC50,[30],6 µM
same,IC50,[31],1.31 µM
same,IC50,[32],0.13 µM
same,IC50,[33],2.11 µM
Fc1ccc(Cn2c(-c3ccc(Br)cc3)nc(-c3ccccc3)c2-c2ccccc2)cc1,inhibition at 125 µM,[14],20%
same,inhibition at 31.25 µM,[15],30%
same,inhibition at 15.6 µM,[16],36%
same,inhibition at 7.8 µM,[17],63%
same,inhibition at 3.9 µM,[18],69%
same,inhibition at 1.9 µM,[19],75%
same,inhibition at 500 µM,[20],5%
same,inhibition at 62.5 µM,[21],24%
same,inhibition at 1.5 µM,[22],84%
